Series [1] can be described thus: Chemical stability of cargo/carrier peptide constructs. The class given is physicochemical. As to conditions: 9 days of treatment. On the procedure: (§1) The plasma and chemical stability of various cargo/carrier peptide constructs described in Example 1 was tested. Plasma stability of the compounds was tested using both human and rat sera and the amount of starting material was determined after 30 minutes of treatment. Chemical stability was evaluated by determining the amount of starting material remaining after 9 days of treatment.
The chemical stability of various cargo/carrier peptide constructs described in Example 1 was tested by examining the relative concentration of the peptides over a time period of more than 200 hours at 37° C.

Series [2] is described as follows: Plasma stability in human sera. The format is in vitro ADME. As to conditions: plasma; human sera, 30 minutes. As for the experimental part:
as §1
(§2) The plasma stability of various cargo/carrier peptide constructs described in Example 1 was tested using both human and rat sera and the amount of starting material was determined over time to 30 minutes of treatment. The time course data for cargo/carrier peptides KP-1586, KP-1630, and KP-1631 is shown in FIG. 3, the data for peptides KP-1632, KP-1633, and KP-1634 is shown in FIG. 4, and the data for peptides KP-1635, KP-1636, and KP-1637 is shown in FIG. 5.

Series [3] is described as follows: Plasma stability in rat sera. The class given is in vitro ADME. As to conditions: 30 minutes. On the procedure:
as §1, §2

A word on the fraction remaining: it is what is left of the initial amount, in per cent. Low values mean a greater loss, high ones greater stability. `CC(=O)N[C@@H](CSSC[C@H](NC(C)=O)C(=O)N[C@@H](CCC(=O)O)C(=O)N[C@@H](C)C(=O)N[C@H](C(=O)N[C@@H](CO)C(=O)N[C@@H](CC(C)C)C(=O)N[C@@H](CCCCN)C(=O)N1CCC[C@H]1C(=O)N[C@H](C(=O)N[C@@H](C)C(=O)N[C@@H](Cc1c[nH]c2ccccc12)C(=O)N[C@@H](CO)C(=O)N[C@@H](CC(C)C)C(=O)N[C@@H](CCCNC(=N)N)C(=O)O)[C@@H](C)O)C(C)C)C(=O)N[C@@H](Cc1ccc(O)cc1)C(=O)NCC(=O)N[C@@H](CCCNC(=N)N)C(=O)N[C@@H](CCCCN)C(=O)N[C@@H](CCCCN)C(=O)N[C@@H](CCCNC(=N)N)C(=O)N[C@@H](CCCNC(=N)N)C(=O)N[C@@H](CCC(N)=O)C(=O)N[C@@H](CCCNC(=N)N)C(=O)N[C@@H](CCCNC(=N)N)C(=O)N[C@@H](CCCNC(=N)N)C(N)=O` [KP-1632, Ac-C-E-A-V-S-L-K-P-T-A-W-S-L-R]: the share remaining at 216 h in series [1] turned out to be 89%. The amount remaining at 0.5 h in series [2] is 54%; in series [3], 61%.

Values taken from patent publication US8492346B2, “Methods of use of epsilon inhibitor compounds for the attenuation of pain” (KAI Pharmaceuticals, Inc., priority 2007, dated 2013).
